Here are results for six molecules from patent publication US9247737B2, “Method for disinfecting a surface” (Rohm and Haas Company, priority 2011, dated 2016).

Several values for one entry are separate records, joined by “and”; a condition that tells them apart may be missing. Identical values can stand only once.

Common to all, as to format: cell-based
For assay [1], the system named is Escherichia coli (E. coli ATCC #10536). The assay can be described thus: Example 2: high resolution MBC synergy assay in phosphate buffer containing 35% dipropylene glycol, 15 seconds. The settings on record: for ΣFBC: calculated for the Ca/Cb pair, 1.00 for a component alone; for MBC of component alone (MBCA thymol, MBCB acyclic terpene alcohol): complete kill in 15 seconds, phosphate buffer with 35% DPG, about 1×10^8 bacteria per mL. The method, then:
In this Example, a wide range of combinations of chemicals was tested by conducting high resolution MBC assays of selected acyclic terpene alcohols in the presence of various concentrations of thymol. The materials were sourced in the same way as for Example 1. Synergy tests were conducted using standard microtiter plate assays with phosphate buffer containing 35% dipropylene glycol (DPG). […] The MBC plate was inoculated one column at a time with the test microorganism. An aliquot of the inoculated well was transferred at 15 seconds to a plate containing a neutralizing agent (DIE Neutralizing Broth), mixed and held for 5 minutes before being transferred to a growth plate containing trypticase soy broth (TSB). The TSB plate was incubated at 37° C. and read for the presence/absence of growth at 24 hours. […] This microorganism is representative of natural contaminants in many consumer and industrial applications. […] The tables show the specific combinations of two components: results against the microorganism tested: the end-point activity in weight % measured by the MBC for the first component alone (thymol, MBCA), for the second component alone (acyclic terpene alcohol, MBCB), for the first component in the mixture (Ca) and for the second component in the mixture (Cb); the calculated ΣFBC value; and the range of synergistic ratios for each combination tested (first component t second component or A/B) against the particular microorganism.

Assay [2] relates to Escherichia coli (E. coli—ATCC #10536). The assay can be described thus: Example 3: automated assessment of efficacy in surfactant base (2.85% sodium cocoyl glycinate + 1.85% sodium lauroamphoacetate, pH 10), 15 seconds exposure, DeltaOD read-out. The conditions noted are these: for MBC: in 2.85% sodium cocoyl glycinate + 1.85% sodium lauroamphoacetate solution at pH 10, 15 seconds; for 15 second bactericidal efficacy in combination with thymol (in words): in combination with thymol at concentrations lower than their MBC in the same surfactant formulation. The method, then:
In these examples, the efficacy of combinations of thymol and acyclic terpene alcohols were tested in a surfactant cleansing formulation comprising 2.85% sodium cocoyl glycinate and 1.85% sodium lauroamphoacetate. […] Solutions were prepared such that the concentrations of the surfactant components and test actives were 1.1 times the final desired concentration in order to allow for dilution with the bacterial inoculum in the test. […] Solutions of the thymol and/or acyclic terpene alcohols were prepared at a maximum of 24 hours before testing. […] Tests were conducted using standard microtiter plate assays using an automated liquid handling system. 270 μl of the surfactant test solution was pipetted into each well of the microtitre plate (Nunc F Gamma irradiated 96F untreated microtitre plates of clear polystyrene) and 30 μl of the bacterial suspension was then added. After exactly 15 seconds of bacterial exposure, a 30 μl volume of bacterial cells was withdrawn and transferred to 270 μl of D/E quench solution. […] These provide a dual check of antimicrobial activity, as the OD450 reading is specific for the yellow colour of DIE quench when bacterial growth is observed, whereas OD590 is specific for the initial purple colour of the D/E quench which is retained if no bacterial growth is observed. […] Bacterial growth is observed as an increase in OD450 and a decrease in OD590. […] Four replicate measurements in the same plate have been made for each test system. The number of replicate wells showing either bacterial growth or no growth is also readily assessed by eye by following the colour change. Thymol and terpineol were tested both alone and in combination for comparison purposes.

For assay [3], the system named is Escherichia coli (10536 strain). The assay can be described thus: Example 1: 15 second contact-time bacterial kill assay (microtitre plate, D/E quench, TSA plate count); MBC and FBC analysis. The conditions noted are these: lowest concentration of the single active giving zero bacterial survival after 15 seconds; upper boundary. The procedure:
The efficacies of antimicrobial agents can be usefully compared by determining the Minimum Biocidal Concentration (MBC). The MBC is defined as the lowest absolute concentration of the particular active that provides complete kill (zero bacterial growth).
1 ml of this overnight E. coli culture was transferred to 50 ml of fresh TSB broth and incubated at 37° C. at 150 rpm for ca. 4 hours. This culture was separated into equal volumes and centrifuged at 4000 rpm for 15 minutes, washed with sterile saline (0.85% NaCl), centrifuged once more and re-suspended in saline to give a final concentration of 0.8 OD620 equivalent to about 10^8 cells per millilitre for this particular organism. Here, OD620 indicates the absorbance of a sample in a cuvette of 1.0 cm path length at a wavelength of 620 nm. This bacterial stock was used for assaying against antimicrobial actives (in triplicate).
The following assay describes the testing of 8 materials using 6 dilutions across half of a 96-well micro titre plate (MTP). Using this approach it is possible to assay 16 actives (without replicates) with one full dilution plate, replicating this set up in two halves of the plate columns, 1-6 and 7-12.
This MTP was labelled as the “Screening plate”.
In another MTP, labelled as the “Dilution plate”, 270 μl of D/E neutralising solution from DIFCO Composition was added to column 1. The composition of the neutralising solution was as follows: pancreatic digest of casein, 5.0 g/L; Yeast Extract, 2.5 g/L; Dextrose, 10 g/L, sodium thioglycollate, 1.0 g/L, sodium thiosulphate, 6.0 g/L; sodium bisulphite, 2.5 g/L; Polysorbate 80, 5.0 g/L; lecithin 7.0 g/L; bromocresol purple, 0.02 g/L with a pH in the range 7.6±0.2.
270 μl of tryptone diluent solution was added to all the remaining wells of the Dilution MTP (columns 2-6).
After exactly 5 minutes in the D/E neutralising solution, 30 μl volumes were transferred from column 1 to column 2 of the Dilution MTP and mixed, before transferring further 30 μl volumes from column 2 into column 3. […]

As for `Cc1ccc(C(C)C)c(O)c1` [thymol, 2-isopropyl-5-methylphenol], in assay [1], the ΣFBC was 1.00; the “MBC of component alone (MBCA thymol, MBCB acyclic terpene alcohol)” value (shortened to “MBC of component alone”) was 0.5 weight % and 0.4 weight %. The MBC in assay [2] came out at 0.2 % w/v.

As for `CC(C)=CCC/C(C)=C\CO` [nerol, (Z)-3,7-dimethylocta-2,6-dien-1-ol], in assay [1], the ΣFBC is on record as 1.00 and the “MBC of component alone” value is listed as 0.5 weight %.

As to `CC1=CCC(C(C)(C)O)CC1` (stereo not drawn) [alpha-terpineol, reference compound], the “MBC (minimum biocidal concentration)” value in assay [3] was 0.4 % w/v.

With `C=C[C@@](C)(O)CCC=C(C)C` [(−)-linalool, (S)-3,7-dimethylocta-1,6-dien-3-ol], the “MBC (minimum biocidal concentration)” value in assay [3] stood at 0.4 % w/v.

Consider `C=CC(C)(O)CCC=C(C)C` (racemic) [(+/−)-linalool, 3,7-dimethylocta-1,6-dien-3-ol], for which, in assay [1], the ΣFBC is reported as 1.00 and the “MBC of component alone” value is reported as 0.5 weight %. Further, in assay [2], the MBC is on record as >0.5 % w/v and the “15 second bactericidal efficacy in combination with thymol (in words)” value is recorded as “complete kill”. For the same molecule, the “MBC (minimum biocidal concentration)” value in assay [3] turned out to be 0.4 % w/v.

For `CC(C)=CCC/C(C)=C/CO` [geraniol, (E)-3,7-dimethylocta-2,6-dien-1-ol], in assay [1], the ΣFBC is reported as 1.00 and the “MBC of component alone” value was 0.3 weight %. Moreover, in assay [2], the MBC was >0.5 % w/v and 0.5 % w/v; the “15 second bactericidal efficacy in combination with thymol (in words)” value was “complete kill”.
